This is an account of results in patent US20250017959A1 (priority 2021, published 2025).

This data set concerns HSPC-pDC.

`CC[C@@H]1[C@H](F)C(=O)N[C@@H]1COc1nccc2cc(C(N)=O)c(OC)cc12` [IRAK4 inhibitor, Pf06650833]: the cell viability entry is “without major effects”.
